This note sets out measurements from patent publication US12419874B2, “GLP-1R agonist compound and use thereof” (Chongqing Pharmaceutical Research Institute Co., Ltd., priority 2024, dated 2025).

Each structure is given as a SMILES string.

Chain of GLP-1R (P43220 24-463): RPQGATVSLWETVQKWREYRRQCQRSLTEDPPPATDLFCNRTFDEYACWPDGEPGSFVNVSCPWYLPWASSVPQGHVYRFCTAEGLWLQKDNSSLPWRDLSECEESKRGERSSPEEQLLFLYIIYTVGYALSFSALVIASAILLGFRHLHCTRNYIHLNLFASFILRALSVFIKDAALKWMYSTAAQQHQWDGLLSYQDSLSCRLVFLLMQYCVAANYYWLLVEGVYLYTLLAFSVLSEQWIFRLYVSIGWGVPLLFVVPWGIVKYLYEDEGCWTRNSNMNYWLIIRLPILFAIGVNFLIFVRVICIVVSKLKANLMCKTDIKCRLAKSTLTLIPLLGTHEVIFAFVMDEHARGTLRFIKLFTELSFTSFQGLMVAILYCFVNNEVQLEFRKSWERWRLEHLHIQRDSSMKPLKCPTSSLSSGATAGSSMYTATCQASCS

The assay addresses GLP-1R (Homo sapiens, UniProt P43220). The assay can be described thus: GLP-1R agonistic activity by One-Lite luciferase assay in HEK293-GLP-1R-luc cells (Example 59). The conditions noted are these: 6 h incubation, read-out: cAMP EC50. Type of assay: cell-based. On the procedure:
The agonistic activities of the compounds of the present disclosure on GLP-1R were evaluated by detecting the generation of cAMP.
• (1) Cell line: HEK293-GLP-1R-luc Stable Cell Line (Cobioer, CBP71117); • (2) Culture medium: DMEM+10% FBS (Gibco); • (3) Kit: One-Lite™ kit Luciferase Assay System (Vazyme). 2. Experimental Procedures • (1) HEK293-GLP1R cells were inoculated in a 96-well plate at a density of 30000 cells per well; • (2) 10× working solution of each compound was formulated; • (3) 10 μL of 10× working solution of each compound was added to corresponding well and incubated at 37° C. for 6 h; • (4) 100 μL of One-Lite Luciferase Assay Substrate formulated using One-Lite Luciferase Assay Buffer was added to each well; • (5) The plate was incubated at room temperature for 3 min; • (6) The plate was read by a multimode microplate reader to detect chemiluminescence. 3. Data Analysis • (1) % Activity was calculated by the following formula: % Activity=100−(Signalcmpd−SignalAve-PC)/(SignalAve-VC−SignalAve-PC)×100 • (2) The dose-response curve was plotted to calculate EC50: Y=Bottom+(Top−Bottom)/(1+10^(Log EC50−X)*HillSlope)) • X: log of agonist concentration; Y: Activity. 4. Experimental Results
Broadly, the EC50 is the concentration giving half of the maximal effect. For `CC(=O)N1CC2(C1)CN(C(=O)c1cc3cc([C@H]4CCOC(C)(C)C4)ccc3n1[C@@]1(c3noc(=O)[nH]3)C[C@@H]1C)[C@@H](C)c1c2nn(-c2cc(C)c(F)c(C)c2)c1-n1ccn(-c2ccc3c(cnn3C)c2F)c1=O` [Compound 166], the EC50 was at most 20 nM.

Consider `Cc1cc(-n2nc3c(c2-n2ccn(-c4ccc5c(cnn5C)c4F)c2=O)[C@H](C)N(C(=O)c2cc4cc([C@H]5CCOC(C)(C)C5)ccc4n2[C@@]2(c4noc(=O)[nH]4)C[C@@H]2C)CC32CN(C(=O)C(F)(F)F)C2)cc(C)c1F` [Compound 167], for which the EC50 is at most 20 nM. For `Cc1cc(-n2nc3c(c2-n2ccn(-c4ccc5c(cnn5C)c4F)c2=O)[C@H](C)N(C(=O)c2cc4cc([C@H]5CCOC(C)(C)C5)ccc4n2[C@@]2(c4noc(=O)[nH]4)C[C@@H]2C)CC32CN(S(C)(=O)=O)C2)cc(C)c1F` [Compound 168], the EC50 was at most 20 nM.

Consider `Cc1cc(-n2nc3c(c2-n2ccn(-c4ccc5c(cnn5C)c4F)c2=O)[C@H](C)N(C(=O)c2cc4cc([C@H]5CCOC(C)(C)C5)ccc4n2C2(c4noc(=O)[nH]4)CC2)CC32CC2)cc(C)c1F` [Compound 169], for which the concentration for a half-maximal effect (EC50) was at most 20 nM.

As for `C[C@H]1c2c(nn(-c3ccc(F)c(C4CC4)c3)c2-n2ccn(-c3ccc4c(cnn4C)c3F)c2=O)C2(CC2)CN1C(=O)c1cc2cc([C@H]3CCOC(C)(C)C3)ccc2n1C1(c2noc(=O)[nH]2)CC1` [Compound 170], the EC50 is at most 20 nM. `C[C@H]1c2c(nn(-c3ccc(F)c(C4CC4)c3)c2-n2ccn(-c3ccc4c(cnn4C)c3F)c2=O)C2(CC2)CN1C(=O)c1cc2cc([C@H]3CCOC(C)(C)C3)ccc2n1[C@@]1(c2noc(=O)[nH]2)C[C@@H]1C` [Compound 171]: the EC50 was at most 20 nM. Regarding `Cc1cc(-n2nc3c(c2-n2ccn(-c4ccc5c(cnn5C)c4F)c2=O)[C@H](C)N(C(=O)c2cc4cc([C@H]5CCOC(C)(C)C5)ccc4n2[C@@]2(c4noc(=O)[nH]4)C[C@@H]2C)CC32CC=CC2)cc(C)c1F` [Compound 172], the half-maximal effective concentration (EC50) was at most 20 nM.

As for `Cc1cc(-n2nc3c(c2-n2ccn(-c4ccc5c(cnn5C)c4F)c2=O)[C@H](C)N(C(=O)c2cc4cc(N5CCOC(C)(C)C5)ccc4n2[C@@]2(c4noc(=O)[nH]4)C[C@@H]2C)CC32CC2)cc(C)c1F` [Compound 173], the EC50 fell in the range of 20 to 100 nM. The same measure for `Cc1cc(-n2nc3c(c2-n2ccn(-c4ccc5c(cnn5C)c4F)c2=O)[C@H](C)N(C(=O)c2cc4cc(C5CCOCC5)ccc4n2C2(c4noc(=O)[nH]4)CC2)CC32CC2)cc(C)c1F` [Compound 174]: 100 to 300 nM; for `Cc1cc(-n2nc3c(c2-n2ccn(-c4ccc5c(cnn5C)c4F)c2=O)[C@H](C)N(C(=O)c2cc4cc(C5CCOCC5)ccc4n2[C@@]2(c4noc(=O)[nH]4)C[C@@H]2C)CC32CC2)cc(C)c1F` [Compound 175]: 20 to 100 nM. The figure for `Cc1cc(-n2nc3c(c2-n2ccn(-c4ccc5c(cnn5C)c4F)c2=O)[C@H](C)N(C(=O)c2cc4cc(N5CCOC(C)(C)C5)ccc4n2C2(c4noc(=O)[nH]4)CC2)CC32CC2)cc(C)c1F` [Compound 177] is at most 20 nM; for `Cc1cc(-n2nc3c(c2-n2ccn(-c4ccc5c(cnn5C)c4F)c2=O)[C@H](C)N(C(=O)c2cc4cc([C@H]5CCOC(C)(C)C5)ccc4n2[C@@]2(c4noc(=O)[nH]4)C[C@@H]2C)CC32CC(C)(O)C2)cc(C)c1F` (some centres unmarked) [Compound 179] it is at most 20 nM; for `Cc1cc(-n2nc3c(c2-n2ccn(-c4ccc5c(cnn5C)c4F)c2=O)[C@H](C)N(C(=O)c2cc4cc([C@H]5CCOC(C)(C)C5)ccc4n2[C@@]2(c4noc(=O)[nH]4)C[C@@H]2C)CC32CC(O)C2)cc(C)c1F` (some centres unmarked) [Compound 181] it is at most 20 nM. For `Cc1cc(-n2nc3c(c2-n2ccn(-c4ccc5c(cnn5C)c4F)c2=O)[C@H](C)N(C(=O)c2cc4cc([C@H]5CCOC(C)(C)C5)ccc4n2[C@@]2(c4noc(=O)[nH]4)C[C@@H]2C)CC32CC(F)C2)cc(C)c1F` (some centres unmarked) [Compound 182], the EC50 was at most 20 nM.
